Source: patent US9745282B2, “Indoline compounds as aldosterone synthase inhibitors” (Merck Sharp & Dohme Corp., priority 2012, dated 2017)

What was measured:
[1] = target: human CYP11B1 (Homo sapiens (Human), UniProt P15538); test: V79-Human-CYP11B1 cell assay, modified protocol; format: cell-based; details: V79 cells expressing human CYP11B1
Method: (§1) V79 cell lines stably expressing the either the human CYP11B2 or the human CYP11B1 enzyme were generated using a standard transfection protocol. V79 cells were transfected with plasmids pTriEx3-Hygro-hCyp11B2 or pTriEx3-Hygro-hCyp11B1 using Lipofectamine2000 reagent. V79 cells that stably express the human CYP11B2 or human CYP11B1 enzyme were selected for and maintained in DMEM supplemented with 10% FBS and 400 μg/mL hygromycin for 2 weeks. Single cell clones were generated by infinite dilution in DMEM supplemented with 10% FBS and 400 μg/mL hygromycin until single colonies were obtained. […] For testing of inhibitors, cells were harvested at 80% confluency with 0.05% Trypsan-EDTA, washed once in PBS, and reconstituted in DMEM+0.1% BSA media at a cell concentration of 600,000 cells/mL for the CYP11B2 assay and 280,000 cells/mL for the CYP11B1 assay. 25 μL of cells were added to a 384 well tissue culture treated plate and mixed with 0.3 μL of inhibitor or DMSO (1% final DMSO concentration) for 1 hour at 37° C., 5% CO2. After pre-incubation with inhibitor, the reaction was initiated by adding 5 μL of substrate (final concentration of 125 nM 11-deoxycorticosterone for the CYP11B2 assay or 250 nM 11-deoxycortisol for the CYP11B1 assay). The reaction was carried out for 3 hours at 37° C., 5% CO2 and was stopped by harvesting the supernatants. The amount of product in the supernatant (aldosterone for CYP11B2 assay and cortisol for the CYP11B1 assay) was measured using HTRF-based assay kit (Aldosterone HTRF-CisBio#64ALDPEB, Cortisol HTRF-CisBio #63IDC002-CORT). IC50s for the inhibitor were determined by plotting the amount of product formed against the concentration of inhibitor using sigmoidal dose-response curve (variable slope) fit in GraphPad.
(§2) For the CYP11B2 assay, cells were reconstituted in DMEM+0.1% BSA media at a cell concentration of 600,000 cells/mL and for the CYP11B1 assay cells were reconstituted in DMEM+0.1% BSA media at a cell concentration of 280,000 cells/mL. 25 μl of cells were added to a 384 well tissue culture treated plate and mixed with […] or DMSO (1% final DMSO concentration) for 1 hour at 37° C., 5% CO2.

[2] = target: human CYP11B2 (Homo sapiens (Human), UniProt P19099); test: V79-Human-CYP11B2 cell assay, modified protocol; format: cell-based; details: V79 cells expressing human CYP11B2
Sequence of human CYP11B2 (P19099 25-503): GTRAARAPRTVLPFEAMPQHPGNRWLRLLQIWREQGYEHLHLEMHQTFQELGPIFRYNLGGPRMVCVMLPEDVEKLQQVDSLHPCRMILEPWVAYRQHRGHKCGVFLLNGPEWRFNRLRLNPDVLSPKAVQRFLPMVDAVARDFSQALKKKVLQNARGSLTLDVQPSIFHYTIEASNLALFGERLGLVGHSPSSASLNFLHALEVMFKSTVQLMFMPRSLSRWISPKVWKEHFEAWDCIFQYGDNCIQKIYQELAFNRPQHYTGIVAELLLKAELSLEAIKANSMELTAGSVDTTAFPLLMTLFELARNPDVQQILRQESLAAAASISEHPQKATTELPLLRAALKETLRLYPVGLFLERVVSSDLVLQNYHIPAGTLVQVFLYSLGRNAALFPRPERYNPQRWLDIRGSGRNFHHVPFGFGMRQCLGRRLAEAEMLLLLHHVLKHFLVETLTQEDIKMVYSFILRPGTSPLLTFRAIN
Method: as §1, §2

Sequence of human CYP11B1 (P15538 25-503): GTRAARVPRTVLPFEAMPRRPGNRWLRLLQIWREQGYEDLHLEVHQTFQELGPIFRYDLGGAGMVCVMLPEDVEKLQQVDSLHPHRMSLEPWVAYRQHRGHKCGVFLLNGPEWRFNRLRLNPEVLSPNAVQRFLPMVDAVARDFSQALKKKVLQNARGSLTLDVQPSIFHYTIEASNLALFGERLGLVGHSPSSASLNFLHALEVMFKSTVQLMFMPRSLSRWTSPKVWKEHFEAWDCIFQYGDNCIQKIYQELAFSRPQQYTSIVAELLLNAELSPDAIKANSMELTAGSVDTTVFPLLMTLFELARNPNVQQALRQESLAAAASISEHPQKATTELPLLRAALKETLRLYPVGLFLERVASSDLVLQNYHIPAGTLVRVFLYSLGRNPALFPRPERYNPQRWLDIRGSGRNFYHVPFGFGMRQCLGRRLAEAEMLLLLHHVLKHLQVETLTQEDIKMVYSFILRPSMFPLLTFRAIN

O=C(Cc1ccccc1)N1CCc2cc(-c3cccnc3)ccc21 [Example 26, 1-(Phenylacetyl)-5-pyridin-3-yl-2,3-dihydro-1H-indole]
IC50 [1]: > 5 µM | IC50 [2]: 3.07 µM

COc1ccc(C(=O)N2CCc3cc(-c4cccnc4)ccc32)cc1 [Example 25, 1-[(4-methoxy-phenyl)carbonyl]-5-pyridin-3-yl-2,3-dihydro-1H-indole]
IC50 [1]: > 5 µM | IC50 [2]: 1.43 µM

CCC(=O)N1CCc2cc(-c3cccnc3)ccc21 [Example 21, 1-propanoyl-5-pyridin-3-yl-2,3-dihydro-1H-indole]
IC50 [1]: 4.74 µM | IC50 [2]: 0.228 µM
